The text below walks through data of patent US6525057B2, “Sustained release ranolazine formulations” (CV Therapeutics, Inc., priority 1998, dated 2003).

Data set [1] can be described thus: Example 8: Day 5 pharmacokinetics of racemic ranolazine and enantiomers, SR 1500 and 2000 mg bid. In kind it is in vivo, human. As to conditions: for Cave / Cmin / Degree of fluctuation / Tmax / Cmax / AUC: Day 5, 1500 mg SR bid (racemic, Example 2D); for Tmax / Cmax / AUC: male, human, plasma, oral; for Tmax: 1500 mg, read-out: Median tmax; for AUC: read-out: AUC96-108h; for differences in the pharmacokinetic parameters of the enantiomers: multiple dosing with the SR formulation. How it is done:
This Example evaluated the safety and tolerability of administering racemic ranolazine free base formulations as in Example 2D. The individual and mean concentrations of racemic ranolazine and its enantiomers, (R)-(+)-N-(2,6-dimethylphenyl)-4-[2-hydroxy-3-(2-methoxyphenoxy)-propyl]-1-piperazineacetamide, (S)-(−)-N-(2,6-dimethylphenyl)-4-[2-hydroxy-3-(2-methoxyphenoxy)-propyl]-1-piperazineacetamide in human plasma were also determined.
The study was performed with ascending doses of sustained release ranolazine dosage forms. Before and at intervals during and after the dosing period, blood samples were drawn for ranolazine assay and blood pressure, heart rate, ECG and symptoms were monitored throughout. Data summaries were reviewed after each phase before proceeding to the next phase of the study.
Eight subjects, all healthy male volunteers aged between 18 and 40 entered and all completed the study and were available for pharmacokinetic and safety analysis. The subjects were each given doses of the various types of ranolazine free base in the form of sustained release tablets including 500 mg and 750 mg tablets or with matching placebo as necessary (2×750 mg size plus 1×500 mg size) to make unit oral doses of 1500 and 2000 mg.
In each phase: one dose bid for four days with a single dose on Day 5. On day 5 each volunteer underwent a full pharmacokinetic profile including supine and erect blood pressure (BP) and heart rate, ECG data, adverse events, clinical chemistry and hematology results, urinalysis results.
These tests were made using two-sided t-tests with estimates of variability from the ANOVA models. Steady state was also assessed by comparing means for C48h, C72h and C96h using a mixed effects ANOVA model and untransformed and log, transformed data. For hemodynamic parameters, Day 1 pre-dose treatment means and Day 5 data were compared across treatments via two-sided t-tests using estimates of variability from mixed effects ANOVA models. Ninety and 95% confidence intervals were calculated for the treatment comparisons. No adjustments were made for multiple comparisons.

The conditions of data set [2]: cited from earlier work; for mean peak plasma concentration of ranolazine free base: 1 hour after dose; for mean trough plasma concentration: 8 hours after dose.
Data set [3] concerns patients with stable angina pectoris. As to conditions: 30, 60 and 120 mg tid; cited from earlier work.

The structures appear in SMILES notation. Where two headings read alike, the source gives them in different places.

By Tmax is commonly meant the time from dosing to the highest level. The term Cmax denotes the peak of the concentration-time curve. For the compound `COc1ccccc1OC[C@H](O)CN1CCN(CC(=O)Nc2c(C)cccc2C)CC1` [(+)R ranolazine, (R)-(+)-N-(2,6-dimethylphenyl)-4-[2-hydroxy-3-(2-methoxyphenoxy)-propyl]-1-piperazineacetamide], in data set [1], the Cave was 2.144 ± 1.115 µg/mL, the Cmin came to 1.436 ± 1.046 µg/mL, the Degree of fluctuation came to 0.833 and the time of peak concentration (Tmax) was found to be 4 h. Further, in data set [1], the highest level (Cmax) was 2.91 ± 1.31 µg/mL, the AUC was 25.7 µg·h/mL and the “differences in the pharmacokinetic parameters of the enantiomers” value is recorded as “no differences”.

For `COc1ccccc1OC[C@@H](O)CN1CCN(CC(=O)Nc2c(C)cccc2C)CC1` [(−)S ranolazine, (S)-(−)-N-(2,6-dimethylphenyl)-4-[2-hydroxy-3-(2-methoxyphenoxy)-propyl]-1-piperazineacetamide], in data set [1], the Cave was determined as 2.201 ± 1.237 µg/mL, the Cmin is 1.514 ± 1.201 µg/mL, the Degree of fluctuation is 0.824 and the time to peak (Tmax) amounted to 4 h. Also, in data set [1], the highest level (Cmax) was 2.94 ± 1.43 µg/mL, the AUC was determined as 26.4 µg·h/mL and the “differences in the pharmacokinetic parameters of the enantiomers” value was “no differences”.

With `COc1ccccc1OCC(O)CN1CCN(CC(=O)Nc2c(C)cccc2C)CC1` (stereo not drawn) [ranolazine .2HCl], the “mean peak plasma concentration of ranolazine free base” value in data set [2] (30 mg tid IR) is listed as 94 ng/mL; in data set [2] (60 mg tid IR), 219 ng/mL; in data set [2] (120 mg tid IR), 510 ng/mL. For the same compound, the “mean trough plasma concentration” value is recorded as 18 ng/mL in data set [2] (30 mg tid IR), 37 ng/mL in data set [2] (60 mg tid IR) and 90 ng/mL in data set [2] (120 mg tid IR). Moreover, the “therapy compared with placebo” value in data set [3] is listed as “not superior to placebo”.
